The values that follow come from patent publication US4492693A, “Benzothienylglycyl cephalosporin derivatives” (priority 1983, dated 1985).

Molecules are shown by their SMILES. In brackets after ≈: the same amount, converted by molar mass. Where two headings read alike, the source gives them in different places.

Holding throughout (assay): Agar Dilution MIC (Table I)
Assay type in all cases: cell-based

One assay concerns Klebsiella. To be noted: for MIC: Klebsiella, read-out: Agar Dilution MIC.
The test system of another assay is H. influ. The note with it: read-out: Agar Dilution MIC. For orientation: In agar dilution, organisms are placed on agar that contains the substance at set levels.
For a further assay, the system named is Staph. epi. The note with it: read-out: Agar Dilution MIC.
Another assay relates to Staph. aureus. The note with it: Staphylococcus aureus.
A further assay deals with Strep. D. The note with it: for MIC: read-out: Agar Dilution MIC. From the text:
A typical and preferred compound provided by this invention is 7-(3-benzothienyl)glycylamido-3-methyl-3-cephem-4-carboxylic acid, the compound illustrated in Example 9. The antibacterial activity of this compound has been determined in standard in vitro agar dilution assays against a variety of gram positive and gram negative microorganism. The following Tables present typical minimum inhibitory concentrations (MIC's) in μg/ml for several compounds of the invention when evaluated against the indicated microorganisms. MIC's for several known compounds are also presented for comparison.
Agar Dilution MIC (μg/ml)

The subject of another assay is E. coli. The note with it: Escherichia coli.
The subject of another assay is Strep. PN. The note with it: strain PARK.
A further assay relates to Strep. A. To be noted: strain C203; read-out: Agar Dilution MIC.
Where [1] appears, read: strain V41, read-out: Agar Dilution MIC.
Setting [2] is: strain X1.1, read-out: Agar Dilution MIC.
Setting [3] is: strain X400, read-out: Agar Dilution MIC.
[4] abbreviates: read-out: Agar Dilution MIC, strain S13E.

A word on the MIC: it is the least concentration at which growth counts as inhibited. Take `C=CC1=C(C(=O)O)N2C(=O)C(NC(=O)[C@H](N)c3csc4ccccc34)C2SC1` (stereo partly drawn) [Ex. 35, D-7-(3-Benzothienylglycylamido)-3-vinyl-3-cephem-4-carboxylic acid]: the MIC with Klebsiella (strain KAE) was found to be 128 µg/mL (≈ 308 µM); in the assay on Klebsiella (strain X26), 8 µg/mL (≈ 19.3 µM); in the assay on Klebsiella (strain X68), 128 µg/mL (≈ 308 µM); in the assay on H. influ. (strain 76), 1 µg/mL (≈ 2.41 µM); in the assay on H. influ. (strain C.L.) it was 8 µg/mL (≈ 19.3 µM); with Staph. epi (strain 222), 2 µg/mL (≈ 4.81 µM). In addition, the MIC came to 8 µg/mL (≈ 19.3 µM) in the assay on Staph. epi (strain EPI1); 16 µg/mL (≈ 38.5 µM) in the assay with Staph. aureus (setting [1]); 2 µg/mL (≈ 4.81 µM) with Staph. aureus (setting [2]); 32 µg/mL (≈ 77 µM) in the assay with Staph. aureus (setting [3]); 32 µg/mL (≈ 77 µM) in the assay with Strep. D (strain 2041); 64 µg/mL (≈ 154 µM) with Strep. D (strain X66). Further, the MIC against E. coli (strain EC14), in the assay on E. coli (strain N10) and against E. coli (strain TEM) was 128 µg/mL (≈ 308 µM) in each case.
Regarding `CC1=C(C(=O)O)N2C(=O)C(NC(=O)[C@@H](N)c3csc4cccc(Cl)c34)C2SC1` (stereo partly drawn) [Ex. 36A, L-7-(4-chloro-3-benzothienyl)glycylamido-3-methyl-3-cephem-4-carboxylic acid], the MIC with Klebsiella was determined as 128 µg/mL (≈ 292 µM); with Strep. PN, 8 µg/mL (≈ 18.3 µM); in the assay on H. influ. it was 128 µg/mL (≈ 292 µM); in the assay on H. influ. (strain 76), 4 µg/mL (≈ 9.13 µM); in the assay on Staph. epi, 128 µg/mL (≈ 292 µM); in the assay on Staph. epi (strain 222), 64 µg/mL (≈ 146 µM). Moreover, the MIC came to 128 µg/mL (≈ 292 µM) in the assay on Staph. aureus (setting [4]); 128 µg/mL (≈ 292 µM) with Staph. aureus (setting [1]); 64 µg/mL (≈ 146 µM) in the assay with Staph. aureus (setting [2]); 128 µg/mL (≈ 292 µM) with Staph. aureus (setting [3]); 16 µg/mL (≈ 36.5 µM) in the assay with Strep. A; 128 µg/mL (≈ 292 µM) in the assay on Strep. D. For the same compound, the MIC with E. coli (strain EC14), against E. coli (strain N10) and in the assay with E. coli (strain TEM) was 128 µg/mL (≈ 292 µM) throughout. In addition, the “Agar Dilution MIC” value with Klebsiella (strain KAE), in the assay with Klebsiella (strain X68) and in the assay on Strep. D (strain 2041) was 128 µg/mL throughout.
On to `CC1=C(C(=O)O)N2C(=O)C(NC(=O)[C@H](N)c3csc4cccc(Cl)c34)C2SC1` (stereo partly drawn) [Ex. 36B, D-7-(4-chloro-3-benzothienyl)glycylamido-3-methyl-3-cephem-4-carboxylic acid], for which the MIC in the assay with Klebsiella was determined as 128 µg/mL (≈ 292 µM); against Strep. PN it was 8 µg/mL (≈ 18.3 µM); in the assay with H. influ., 128 µg/mL (≈ 292 µM); in the assay on H. influ. (strain 76) it was 16 µg/mL (≈ 36.5 µM); with Staph. epi, 128 µg/mL (≈ 292 µM); with Staph. epi (strain 222), 8 µg/mL (≈ 18.3 µM). The MIC with Staph. aureus (setting [4]) is 128 µg/mL (≈ 292 µM); with Staph. aureus (setting [1]) it was 128 µg/mL (≈ 292 µM); with Staph. aureus (setting [2]), 16 µg/mL (≈ 36.5 µM); in the assay on Staph. aureus (setting [3]), 128 µg/mL (≈ 292 µM); in the assay on Strep. A it was 8 µg/mL (≈ 18.3 µM); in the assay with Strep. D it was 128 µg/mL (≈ 292 µM). Also, the MIC in the assay with E. coli (strain EC14), against E. coli (strain N10) and against E. coli (strain TEM) was 128 µg/mL (≈ 292 µM) each time. In addition, the “Agar Dilution MIC” value with Klebsiella (strain KAE), with Klebsiella (strain X68) and with Strep. D (strain 2041) was 128 µg/mL throughout.
For `CC1=C(C(=O)O)N2C(=O)C(NC(=O)[C@@H](N)c3csc4cc(Cl)ccc34)C2SC1` (stereo partly drawn) [Ex. 37A, L-7-(6-Chloro-3-benzothienyl)glycylamido-3-methyl-3-cephem-4-carboxylic acid], the MIC with Klebsiella (strain KAE) is 128 µg/mL (≈ 292 µM); in the assay with Klebsiella (strain X26) it was 64 µg/mL (≈ 146 µM); with Klebsiella (strain X68), 128 µg/mL (≈ 292 µM); in the assay with Strep. PN it was 16 µg/mL (≈ 36.5 µM); in the assay on H. influ. (strain 76), 2 µg/mL (≈ 4.57 µM); in the assay on H. influ. (strain C.L.), 128 µg/mL (≈ 292 µM). The MIC was determined as 32 µg/mL (≈ 73.1 µM) with Staph. epi (strain 222); 64 µg/mL (≈ 146 µM) in the assay with Staph. epi (strain EPI1); 64 µg/mL (≈ 146 µM) in the assay with Staph. aureus (setting [4]); 64 µg/mL (≈ 146 µM) in the assay with Staph. aureus (setting [1]); 16 µg/mL (≈ 36.5 µM) in the assay with Staph. aureus (setting [2]); 128 µg/mL (≈ 292 µM) in the assay with Staph. aureus (setting [3]). Further, the MIC in the assay on Strep. A came out at 4 µg/mL (≈ 9.13 µM); in the assay with Strep. D (strain 2041) it was 128 µg/mL (≈ 292 µM); in the assay with Strep. D (strain X66), 128 µg/mL (≈ 292 µM); with E. coli (strain EC14), 128 µg/mL (≈ 292 µM); against E. coli (strain N10), 128 µg/mL (≈ 292 µM); in the assay on E. coli (strain TEM) it was 128 µg/mL (≈ 292 µM).
Take `CC1=C(C(=O)O)N2C(=O)C(NC(=O)[C@H](N)c3csc4ccc(Cl)cc34)C2SC1` (stereo partly drawn) [Ex. 38B, D-7-(5-chloro-3-benzothienyl)glycylamido-3-methyl-3-cephem-4-carboxylic acid]: the MIC in the assay with Klebsiella (strain KAE) came to 64 µg/mL (≈ 146 µM); in the assay on Klebsiella (strain X26), 2 µg/mL (≈ 4.57 µM); in the assay with Klebsiella (strain X68), 64 µg/mL (≈ 146 µM); against Strep. PN it was 0.25 µg/mL (≈ 0.571 µM); with Staph. epi (strain 222), 2 µg/mL (≈ 4.57 µM); with Staph. epi (strain EPI1) it was 4 µg/mL (≈ 9.13 µM). Further, the MIC worked out at 4 µg/mL (≈ 9.13 µM) in the assay with Staph. aureus (setting [1]); 1 µg/mL (≈ 2.28 µM) with Staph. aureus (setting [2]); 8 µg/mL (≈ 18.3 µM) in the assay with Staph. aureus (setting [3]); 0.25 µg/mL (≈ 0.571 µM) in the assay on Strep. A; 32 µg/mL (≈ 73.1 µM) in the assay with Strep. D (strain 2041); 64 µg/mL (≈ 146 µM) in the assay with Strep. D (strain X66). Further, the MIC in the assay with E. coli (strain EC14), against E. coli (strain N10) and against E. coli (strain TEM) was 64 µg/mL (≈ 146 µM) in each case.
